IC50 and biological activity data for 22 compounds are collected here from patent US9771379B2, “N-(2-(2-amino-6-substituted-4,4a,5,6-tetrahydropyrano[3,4-d][1,3]OXAZIN-8a(8H)-yl)-thiazol-4-yl) amides” (Pfizer Inc., priority 2015, dated 2017).

In the first test the target is BACE1 enzyme (Homo sapiens (Human), UniProt P56817). In words: BACE1 Cell-Free Assay. The test is classed as biochemical. Particulars: fluorescence polarization, synthetic APP substrate, pH 4.5. The source says: This assay measures the inhibition of the beta-secretase enzyme as it cleaves a non-native peptide.
Chain of BACE1 enzyme (P56817 46-457): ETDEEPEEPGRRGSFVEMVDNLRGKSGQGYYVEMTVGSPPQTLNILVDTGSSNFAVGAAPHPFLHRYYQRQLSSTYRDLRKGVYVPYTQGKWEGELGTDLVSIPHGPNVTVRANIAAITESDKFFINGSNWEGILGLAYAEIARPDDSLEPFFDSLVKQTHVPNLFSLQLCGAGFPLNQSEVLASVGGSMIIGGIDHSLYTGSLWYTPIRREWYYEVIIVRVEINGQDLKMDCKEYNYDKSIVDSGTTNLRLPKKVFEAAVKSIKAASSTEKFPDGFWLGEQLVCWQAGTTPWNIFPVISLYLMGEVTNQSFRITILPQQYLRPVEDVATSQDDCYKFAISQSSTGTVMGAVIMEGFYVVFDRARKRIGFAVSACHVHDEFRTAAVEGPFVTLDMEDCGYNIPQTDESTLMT
A synthetic APP substrate that can be cleaved by beta-secretase having N-terminal biotin and made fluorescent by the covalent attachment of Oregon Green at the Cys residue is used to assay beta-secretase activity in the presence or absence of the inhibitory compounds. […] The BACE1 enzyme is affinity purified material from conditioned media of CHO-K1 cells that have been transfected with a soluble BACE construct (BACE1delta™96His). […] Plates are covered and incubated for 3 hours at 37° C. […] The activity of the beta-secretase enzyme is detected by changes in the fluorescence polarization that occur when the substrate is cleaved by the enzyme.
Turning to `C[C@H]1C[C@H]2COC(N)=N[C@@]2(c2nc(NC(=O)c3ccc(OC(F)F)cn3)cs2)CO1` [Example 1, N-(2-((4aR,6S,8aR)-2-amino-6-methyl-4,4a,5,6-tetrahydropyrano[3,4-d][1,3]oxazin-8a(8H)-yl)thiazol-4-yl)-5-(difluoromethoxy)picolinamide], 214 nM corresponded to half-maximal inhibition (IC50).
Still for that read-out and setting: next, `C[C@H]1C[C@H]2COC(N)=N[C@@]2(c2nc(NC(=O)c3ncc(OC(F)F)cc3Cl)cs2)CO1` [Example 2, N-(2-((4aR,6S,8aR)-2-amino-6-methyl-4,4a,5,6-tetrahydropyrano[3,4-d][1,3]oxazin-8a(8H)-yl)thiazol-4-yl)-3-chloro-5-(difluoromethoxy)picolinamide]: 123 nM.
In the case of `Cc1cc(OC(F)F)cnc1C(=O)Nc1csc([C@]23CO[C@@H](C)C[C@H]2COC(N)=N3)n1` [Example 3, N-(2-((4aR,6S,8aR)-2-amino-6-methyl-4,4a,5,6-tetrahydropyrano[3,4-d][1,3]oxazin-8a(8H)-yl)thiazol-4-yl)-5-(difluoromethoxy)-3-methylpicolinamide], the IC50 came to 85 nM. The IC50 values of the last two compounds are within 1.5-fold of each other.
The compound `C[C@H]1C[C@H]2CCOC(N)=N[C@@]2(c2nc(NC(=O)c3ccc(OC(F)F)cn3)cs2)CO1` [Example 4, N-(2-((5aR,7S,9aR)-2-amino-7-methyl-5,5a,6,7-tetrahydro-4H-pyrano[3,4-d][1,3]oxazepin-9a(9H)-yl)thiazol-4-yl)-5-(difluoromethoxy)picolinamide] had an IC50 of 146 nM.
As for `Cc1cc(OC(F)F)cnc1C(=O)Nc1csc([C@]23CO[C@@H](C)C[C@H]2CCOC(N)=N3)n1` [Example 5, N-(2-((5aR,7S,9aR)-2-amino-7-methyl-5,5a,6,7-tetrahydro-4H-pyrano[3,4-d][1,3]oxazepin-9a(9H)-yl)thiazol-4-yl)-5-(difluoromethoxy)-3-methylpicolinamide], half-maximal inhibition (IC50) required 71 nM. This IC50 lies about 2.1-fold lower than the previous one.
`C[C@H]1C[C@H]2[C@@H](CF)OC(N)=N[C@@]2(c2nc(NC(=O)c3ccc(OC(F)F)cn3)cs2)CO1` [Example 6, N-(2-((4S,4aR,6S,8aR)-2-amino-4-(fluoromethyl)-6-methyl-4,4a,5,6-tetrahydropyrano[3,4-d][1,3]oxazin-8a(8H)-yl)thiazol-4-yl)-5-(difluoromethoxy)picolinamide]: the IC50 worked out at 270 nM.
The same measure, in the same setting: next, `C[C@H]1C[C@H]2[C@@H](C(F)(F)F)OC(N)=N[C@@]2(c2nc(NC(=O)c3ccc(OC(F)F)cn3)cs2)CO1` [Example 7, N-(2-((4S,4aR,6S,8aR)-2-amino-6-methyl-4-(trifluoromethyl)-4,4a,5,6-tetrahydropyrano[3,4-d][1,3]oxazin-8a(8H)-yl)thiazol-4-yl)-5-(difluoromethoxy)picolinamide]: 112 nM; `CC1(C)C[C@H]2COC(N)=N[C@@]2(c2nc(NC(=O)c3ccc(OC(F)F)cn3)cs2)CO1` [Example 8, N-(2-((4aR,8aR)-2-Amino-6,6-dimethyl-4,4a,5,6-tetrahydropyrano[3,4-d][1,3]oxazin-8a(8H)-yl)thiazol-4-yl)-5-(difluoromethoxy)picolinamide]: 610 nM; `Cc1cc(OC(F)F)cnc1C(=O)Nc1csc([C@]23COC(C)(C)C[C@H]2COC(N)=N3)n1` [Example 9, N-(2-((4aR,8aR)-2-amino-6,6-dimethyl-4,4a,5,6-tetrahydropyrano[3,4-d][1,3]oxazin-8a(8H)-yl)thiazol-4-yl)-5-(difluoromethoxy)-3-methylpicolinamide]: 475 nM.
In the case of `NC1=N[C@@]2(c3nc(NC(=O)c4ccc(Cl)cn4)cs3)CO[C@@H](C(F)(F)F)C[C@H]2CO1` [Example 10a, N-(2-((4aR,6R,8aR)-2-amino-6-(trifluoromethyl)-4,4a,5,6-tetrahydropyrano[3,4-d][1,3]oxazin-8a(8H)-yl)thiazol-4-yl)-5-chloropicolinamide], half-maximal inhibition (IC50) was put at 310 nM.
Compound `NC1=N[C@]2(c3nc(NC(=O)c4ccc(Cl)cn4)cs3)CO[C@H](C(F)(F)F)C[C@@H]2CO1` [Example 10b, N-(2-((4aS,6S,8aS)-2-amino-6-(trifluoromethyl)-4,4a,5,6-tetrahydropyrano[3,4-d][1,3]oxazin-8a(8H)-yl)thiazol-4-yl)-5-chloropicolinamide] had a concentration for half-maximal inhibition (IC50) of 16700 nM. Compared with the last compound, the IC50 is about 54-fold higher.
Still for that read-out and setting: next, `Cc1cc(OC(F)F)cnc1C(=O)Nc1csc([C@]23CO[C@@H](C(F)(F)F)C[C@H]2COC(N)=N3)n1` [Example 11a, N-(2-((4aR,6R,8aR)-2-amino-6-(trifluoromethyl)-4,4a,5,6-tetrahydropyrano[3,4-d][1,3]oxazin-8a(8H)-yl)thiazol-4-yl)-5-(difluoromethoxy)-3-methylpicolinamide]: 155 nM.
`Cc1cc(OC(F)F)cnc1C(=O)Nc1csc([C@@]23CO[C@H](C(F)(F)F)C[C@@H]2COC(N)=N3)n1` [Example 11b, N-(2-((4aS,6S,8aS)-2-amino-6-(trifluoromethyl)-4,4a,5,6-tetrahydropyrano[3,4-d][1,3]oxazin-8a(8H)-yl)thiazol-4-yl)-5-(difluoromethoxy)-3-methylpicolinamide] displayed an IC50 of 10800 nM. Compared with the last compound, the IC50 is about 70-fold higher.
Turning to `NC1=N[C@@]2(c3nc(NC(=O)c4ccc(OC(F)F)cn4)cs3)CO[C@@H](C(F)(F)F)C[C@H]2CO1` [Example 12a, N-(2-((4aR,6R,8aR)-2-amino-6-(trifluoromethyl)-4,4a,5,6-tetrahydropyrano[3,4-d][1,3]oxazin-8a(8H)-yl)thiazol-4-yl)-5-(difluoromethoxy)picolinamide], the IC50 stood at 371 nM. This IC50 lies about 29-fold lower than the previous one.
`NC1=N[C@]2(c3nc(NC(=O)c4ccc(OC(F)F)cn4)cs3)CO[C@H](C(F)(F)F)C[C@@H]2CO1` [Example 12b, N-(2-((4aS,6S,8aS)-2-amino-6-(trifluoromethyl)-4,4a,5,6-tetrahydropyrano[3,4-d][1,3]oxazin-8a(8H)-yl)thiazol-4-yl)-5-(difluoromethoxy)picolinamide] yielded an IC50 of 15000 nM.
Compound `NC1=N[C@@]2(c3nc(NC(=O)c4ncc(OC(F)F)cc4Cl)cs3)CO[C@@H](C(F)(F)F)C[C@H]2CO1` [Example 13a, N-(2-((4aR,6R,8aR)-2-amino-6-(trifluoromethyl)-4,4a,5,6-tetrahydropyrano[3,4-d][1,3]oxazin-8a(8H)-yl)thiazol-4-yl)-3-chloro-5-(difluoromethoxy)picolinamide] gave an IC50 of 184 nM. Compared with the last compound, the IC50 is about 82-fold lower.
Regarding `NC1=N[C@]2(c3nc(NC(=O)c4ncc(OC(F)F)cc4Cl)cs3)CO[C@H](C(F)(F)F)C[C@@H]2CO1` [Example 13b, N-(2-((4aS,6S,8aS)-2-amino-6-(trifluoromethyl)-4,4a,5,6-tetrahydropyrano[3,4-d][1,3]oxazin-8a(8H)-yl)thiazol-4-yl)-3-chloro-5-(difluoromethoxy)picolinamide], inhibition was half-maximal at 6970 nM (IC50).
The compound `Cc1cc(OC(F)F)cnc1C(=O)Nc1csc([C@]23COC4(CCC4)C[C@H]2COC(N)=N3)n1` [Example 15, N-(2-((4a′R,8a′R)-2′-amino-4a′,5′-dihydro-4′H-spiro[cyclobutane-1,6′-pyrano[3,4-d][1,3]oxazin]-8a′(8′H)-yl)thiazol-4-yl)-5-(difluoromethoxy)-3-methyl picolinamide] gave an IC50 of 370 nM. This IC50 lies about 19-fold lower than the previous one.
For `N#Cc1ccc(C(=O)Nc2csc([C@]34COC5(CCC5)C[C@H]3COC(N)=N4)n2)nc1` [Example 16, N-(2-((4a′R,8a′R)-2′-amino-4a′,5′-dihydro-4′H-spiro [cyclobutane-1,6′-pyrano [3,4-d][1,3]oxazin]-8a′(8′H)-yl)thiazol-4-yl)-5-cyano picolinamide], the concentration for half-maximal inhibition (IC50) worked out at 395 nM.
As for `NC1=N[C@@]2(c3nc(NC(=O)c4cnc(OC(F)F)cn4)cs3)COC3(CCC3)C[C@H]2CO1` [Example 17, N-(2-((4a′R,8a′R)-2′-amino-4a′,5′-dihydro-4′H-spiro [cyclobutane-1,6′-pyrano [3,4-d][1,3]oxazin]-8a′(8′H)-yl)thiazol-4-yl)-5-(difluoromethoxy)pyrazine-2-carboxamide], half-maximal inhibition (IC50) required 2260 nM.
With `NC1=N[C@@]2(c3nc(NC(=O)c4ncc(OC(F)F)cc4Cl)cs3)COC3(CCC3)C[C@H]2CO1` [Example 18, N-(2-((4a′R,8a′R)-2′-amino-4a′,5′-dihydro-4′H-spiro [cyclobutane-1,6′-pyrano[3,4-d][1,3]oxazin]-8a′(8′H)-yl)thiazol-4-yl)-3-chloro-5-(difluoromethoxy) picolinamide], the IC50 was 561 nM.
The compound `Cc1cc(C#N)cnc1C(=O)Nc1csc([C@]23COC4(CCC4)C[C@H]2COC(N)=N3)n1` [Example 19, N-(2-((4a′R,8a′R)-2′-amino-4a′,5′-dihydro-4′H-spiro [cyclobutane-1,6′-pyrano [3,4-d][1,3]oxazin]-8a′(8′H)-yl)thiazol-4-yl)-5-cyano-3-methylpicolinamide] came in with an IC50 of 185 nM.

Staying with this test, now noted: stated in words; used to assign absolute stereochemistry.
As for `NC1=N[C@@]2(c3nc(NC(=O)c4ccc(Cl)cn4)cs3)CO[C@@H](C(F)(F)F)C[C@H]2CO1` [Example 10a, N-(2-((4aR,6R,8aR)-2-amino-6-(trifluoromethyl)-4,4a,5,6-tetrahydropyrano[3,4-d][1,3]oxazin-8a(8H)-yl)thiazol-4-yl)-5-chloropicolinamide], the biological activity entry was “active”.
The same measure, in the same setting: then `NC1=N[C@]2(c3nc(NC(=O)c4ccc(Cl)cn4)cs3)CO[C@H](C(F)(F)F)C[C@@H]2CO1` [Example 10b, N-(2-((4aS,6S,8aS)-2-amino-6-(trifluoromethyl)-4,4a,5,6-tetrahydropyrano[3,4-d][1,3]oxazin-8a(8H)-yl)thiazol-4-yl)-5-chloropicolinamide], with “inactive”; and `NC1=N[C@@]2(c3nc(NC(=O)c4ncc(OC(F)F)cc4Cl)cs3)CO[C@@H](C(F)(F)F)C[C@H]2CO1` [Example 13a, N-(2-((4aR,6R,8aR)-2-amino-6-(trifluoromethyl)-4,4a,5,6-tetrahydropyrano[3,4-d][1,3]oxazin-8a(8H)-yl)thiazol-4-yl)-3-chloro-5-(difluoromethoxy)picolinamide], with “active”.
Consider `NC1=N[C@]2(c3nc(NC(=O)c4ncc(OC(F)F)cc4Cl)cs3)CO[C@H](C(F)(F)F)C[C@@H]2CO1` [Example 13b, N-(2-((4aS,6S,8aS)-2-amino-6-(trifluoromethyl)-4,4a,5,6-tetrahydropyrano[3,4-d][1,3]oxazin-8a(8H)-yl)thiazol-4-yl)-3-chloro-5-(difluoromethoxy)picolinamide], for which the biological activity entry is “inactive”.

By IC50 is commonly meant the concentration that inhibits the measured activity by half.
